Reference: ChEMBL document CHEMBL1201862, “PubChem BioAssay data set” (2004)
Activity calls are given as the source filed them.

Experiments:
[1] = Luminescence Cell-Based Dose Retest to Confirm Inhibitors of Cancer Stem Cells. [Related pubchem assays (depositor defined):AID2717, AID2721]; assay type: functional; settings: Homo sapiens
[2] = target: T1, Heat shock factor protein 1 (Mus musculus, UniProt P38532); assay: HSF1 potentiators in luciferase reporter cells, confirmation, cell-based, NIH3T3, luminescence, dose retest (AID 435004); assay type: functional;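 also: stress induced by proteasome inhibitor MG132 added 30 min after compound; luciferase reporter driven by HSF1 response element in NIH3T3 cells; actives raise luminescence as potentiators of the MG132 stress response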
T1 sequence (P38532 whole entry): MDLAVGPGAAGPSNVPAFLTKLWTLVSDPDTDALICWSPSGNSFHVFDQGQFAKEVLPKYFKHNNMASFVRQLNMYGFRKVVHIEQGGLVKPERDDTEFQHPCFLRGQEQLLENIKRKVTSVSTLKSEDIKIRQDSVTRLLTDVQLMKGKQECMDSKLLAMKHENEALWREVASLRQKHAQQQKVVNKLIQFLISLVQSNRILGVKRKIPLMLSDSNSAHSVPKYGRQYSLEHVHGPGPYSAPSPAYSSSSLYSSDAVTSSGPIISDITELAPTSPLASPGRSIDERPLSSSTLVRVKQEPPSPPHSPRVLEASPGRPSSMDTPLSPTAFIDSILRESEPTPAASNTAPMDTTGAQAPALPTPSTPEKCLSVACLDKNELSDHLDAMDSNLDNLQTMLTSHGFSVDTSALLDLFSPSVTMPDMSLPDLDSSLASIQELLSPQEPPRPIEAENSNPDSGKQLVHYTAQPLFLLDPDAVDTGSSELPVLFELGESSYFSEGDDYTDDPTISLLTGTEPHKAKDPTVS

[3] = target: T2, Protein RecA (Mycobacterium tuberculosis, UniProt P9WHJ3); assay: Fluorescence Cell-Free Homogeneous Dose Retest to Identify Inhibitors of RecA-Intein Splicing Activity. [Related pubchem assays (depositor defined):AID2097, AID2223, AID489010, AID492950]; assay type: functional
T2 sequence (P9WHJ3 whole entry): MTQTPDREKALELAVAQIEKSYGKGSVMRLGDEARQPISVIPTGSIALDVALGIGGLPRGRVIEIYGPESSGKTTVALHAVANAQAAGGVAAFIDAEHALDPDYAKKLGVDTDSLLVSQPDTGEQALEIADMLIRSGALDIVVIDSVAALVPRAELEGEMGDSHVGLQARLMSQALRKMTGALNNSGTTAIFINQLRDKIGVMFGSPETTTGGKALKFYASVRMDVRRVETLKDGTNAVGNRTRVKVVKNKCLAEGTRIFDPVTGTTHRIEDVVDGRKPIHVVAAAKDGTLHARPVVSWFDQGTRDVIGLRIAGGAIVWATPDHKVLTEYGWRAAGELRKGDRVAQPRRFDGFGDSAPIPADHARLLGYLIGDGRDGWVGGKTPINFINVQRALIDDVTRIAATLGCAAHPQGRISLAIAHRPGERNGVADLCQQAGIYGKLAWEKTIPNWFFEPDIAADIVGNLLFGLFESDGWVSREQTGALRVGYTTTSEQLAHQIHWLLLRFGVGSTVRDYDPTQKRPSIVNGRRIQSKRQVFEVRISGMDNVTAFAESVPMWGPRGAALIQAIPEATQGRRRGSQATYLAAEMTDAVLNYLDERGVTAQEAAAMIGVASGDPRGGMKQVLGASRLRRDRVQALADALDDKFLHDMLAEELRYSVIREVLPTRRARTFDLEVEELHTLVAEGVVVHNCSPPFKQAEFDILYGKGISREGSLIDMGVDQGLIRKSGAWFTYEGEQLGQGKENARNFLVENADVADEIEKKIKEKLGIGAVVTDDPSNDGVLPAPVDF

[4] = target: T3, Microphthalmia-associated transcription factor (Homo sapiens, UniProt O75030); assay: TRPM1 promoter luciferase signal decrease, dose response, MITF inhibitor project, cell-based, SK-MEL-5, cherry-picked, set 3 (AID 493073); assay type: functional
T3 sequence (O75030 whole entry): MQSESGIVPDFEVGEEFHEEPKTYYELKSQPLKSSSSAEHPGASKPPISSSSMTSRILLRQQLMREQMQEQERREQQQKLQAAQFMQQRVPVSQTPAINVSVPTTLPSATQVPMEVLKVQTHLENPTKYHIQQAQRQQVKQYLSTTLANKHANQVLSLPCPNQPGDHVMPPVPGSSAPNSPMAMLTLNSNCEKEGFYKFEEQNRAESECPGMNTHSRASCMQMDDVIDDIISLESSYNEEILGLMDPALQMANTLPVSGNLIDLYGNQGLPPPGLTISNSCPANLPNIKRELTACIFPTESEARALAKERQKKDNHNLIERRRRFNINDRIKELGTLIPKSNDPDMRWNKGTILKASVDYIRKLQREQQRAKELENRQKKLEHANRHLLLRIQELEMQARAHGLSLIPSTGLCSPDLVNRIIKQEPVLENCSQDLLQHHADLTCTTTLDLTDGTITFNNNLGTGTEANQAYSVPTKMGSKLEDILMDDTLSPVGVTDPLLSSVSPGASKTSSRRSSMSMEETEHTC

[5] = target: T4, Replicative DNA helicase DnaB (Mycobacterium tuberculosis, UniProt P9WMR3); assay: DnaB intein splicing inhibitors, dose response, biochemical, cell-free fluorescence (AID 449749); assay type: functional
T4 sequence (P9WMR3 whole entry): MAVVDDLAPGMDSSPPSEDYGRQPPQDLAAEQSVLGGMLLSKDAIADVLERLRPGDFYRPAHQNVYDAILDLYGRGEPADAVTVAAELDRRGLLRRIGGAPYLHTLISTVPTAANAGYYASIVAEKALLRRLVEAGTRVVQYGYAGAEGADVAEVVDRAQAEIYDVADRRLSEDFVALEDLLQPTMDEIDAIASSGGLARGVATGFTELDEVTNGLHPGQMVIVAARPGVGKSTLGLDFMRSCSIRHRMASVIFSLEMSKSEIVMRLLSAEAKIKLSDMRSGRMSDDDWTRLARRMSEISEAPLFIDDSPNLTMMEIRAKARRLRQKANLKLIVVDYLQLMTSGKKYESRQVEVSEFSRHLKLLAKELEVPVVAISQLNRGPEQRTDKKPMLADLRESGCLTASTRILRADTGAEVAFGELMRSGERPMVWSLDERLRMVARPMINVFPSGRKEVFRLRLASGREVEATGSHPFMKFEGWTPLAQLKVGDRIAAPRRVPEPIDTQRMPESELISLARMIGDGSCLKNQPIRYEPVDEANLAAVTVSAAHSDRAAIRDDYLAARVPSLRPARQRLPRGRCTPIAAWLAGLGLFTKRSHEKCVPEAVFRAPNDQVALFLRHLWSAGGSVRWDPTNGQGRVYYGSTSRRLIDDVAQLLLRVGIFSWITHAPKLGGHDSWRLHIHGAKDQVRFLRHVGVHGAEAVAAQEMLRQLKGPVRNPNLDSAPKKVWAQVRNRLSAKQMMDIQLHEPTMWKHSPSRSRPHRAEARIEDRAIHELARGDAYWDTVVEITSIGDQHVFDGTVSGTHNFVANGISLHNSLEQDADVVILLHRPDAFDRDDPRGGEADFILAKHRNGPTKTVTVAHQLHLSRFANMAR

[6] = target: T5, High affinity choline transporter 1 (Homo sapiens, UniProt Q9GZV3); assay: CHT inhibitors, dose response, cell-based, 5-point CRC, membrane potential dye (AID 504840); assay type: functional
T5 sequence (Q9GZV3 whole entry): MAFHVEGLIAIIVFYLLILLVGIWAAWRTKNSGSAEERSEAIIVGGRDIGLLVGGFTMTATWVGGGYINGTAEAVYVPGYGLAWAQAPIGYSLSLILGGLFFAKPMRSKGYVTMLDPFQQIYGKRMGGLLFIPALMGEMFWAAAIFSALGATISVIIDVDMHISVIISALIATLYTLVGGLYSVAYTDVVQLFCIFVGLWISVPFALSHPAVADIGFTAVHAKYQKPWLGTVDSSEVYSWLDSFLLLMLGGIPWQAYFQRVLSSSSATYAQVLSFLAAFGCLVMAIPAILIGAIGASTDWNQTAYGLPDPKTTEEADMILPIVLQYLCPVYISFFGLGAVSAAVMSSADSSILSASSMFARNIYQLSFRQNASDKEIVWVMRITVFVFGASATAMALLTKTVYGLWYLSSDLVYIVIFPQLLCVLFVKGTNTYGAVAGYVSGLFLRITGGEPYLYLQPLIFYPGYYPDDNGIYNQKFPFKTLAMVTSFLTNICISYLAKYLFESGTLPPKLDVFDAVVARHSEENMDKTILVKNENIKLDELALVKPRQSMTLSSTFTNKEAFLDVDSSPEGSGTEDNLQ

[7] = microbe, parasite or virus in culture; assay type: functional; settings: Mycobacterium tuberculosis
[8] = P. falciparum Dd2 growth inhibitors, dose response, SYBR Green, cherry-picked samples (AID 1159567); assay type: functional, cell-based
[9] = MC4R antagonists, dose response, counter-screen for LGR2 antagonist project, cell-based, plate reader, cherry pick (AID 743444); assay type: functional;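 also: transfected HEK 293 cells stimulated with alpha-MSH peptide; potency of inhibitors of the alpha-MSH evoked signal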
[10] = LGR2 antagonists, dose response, cell-based, HEK293, CRE-luciferase reporter, cherry pick, set 2 (AID 743343); assay type: functional;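 also: transfected cells were stimulated with diluted bursicon conditioned medium after compound addition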
[11] = cells; assay type: functional
[12] = target: Voltage-dependent T-type calcium channel subunit alpha-1H (Homo sapiens, UniProt O95180); assay type: functional;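 also: channel activity triggered by adding a high calcium stimulation buffer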
Sequence of Voltage-dependent T-type calcium channel subunit alpha-1H (O95180 whole entry): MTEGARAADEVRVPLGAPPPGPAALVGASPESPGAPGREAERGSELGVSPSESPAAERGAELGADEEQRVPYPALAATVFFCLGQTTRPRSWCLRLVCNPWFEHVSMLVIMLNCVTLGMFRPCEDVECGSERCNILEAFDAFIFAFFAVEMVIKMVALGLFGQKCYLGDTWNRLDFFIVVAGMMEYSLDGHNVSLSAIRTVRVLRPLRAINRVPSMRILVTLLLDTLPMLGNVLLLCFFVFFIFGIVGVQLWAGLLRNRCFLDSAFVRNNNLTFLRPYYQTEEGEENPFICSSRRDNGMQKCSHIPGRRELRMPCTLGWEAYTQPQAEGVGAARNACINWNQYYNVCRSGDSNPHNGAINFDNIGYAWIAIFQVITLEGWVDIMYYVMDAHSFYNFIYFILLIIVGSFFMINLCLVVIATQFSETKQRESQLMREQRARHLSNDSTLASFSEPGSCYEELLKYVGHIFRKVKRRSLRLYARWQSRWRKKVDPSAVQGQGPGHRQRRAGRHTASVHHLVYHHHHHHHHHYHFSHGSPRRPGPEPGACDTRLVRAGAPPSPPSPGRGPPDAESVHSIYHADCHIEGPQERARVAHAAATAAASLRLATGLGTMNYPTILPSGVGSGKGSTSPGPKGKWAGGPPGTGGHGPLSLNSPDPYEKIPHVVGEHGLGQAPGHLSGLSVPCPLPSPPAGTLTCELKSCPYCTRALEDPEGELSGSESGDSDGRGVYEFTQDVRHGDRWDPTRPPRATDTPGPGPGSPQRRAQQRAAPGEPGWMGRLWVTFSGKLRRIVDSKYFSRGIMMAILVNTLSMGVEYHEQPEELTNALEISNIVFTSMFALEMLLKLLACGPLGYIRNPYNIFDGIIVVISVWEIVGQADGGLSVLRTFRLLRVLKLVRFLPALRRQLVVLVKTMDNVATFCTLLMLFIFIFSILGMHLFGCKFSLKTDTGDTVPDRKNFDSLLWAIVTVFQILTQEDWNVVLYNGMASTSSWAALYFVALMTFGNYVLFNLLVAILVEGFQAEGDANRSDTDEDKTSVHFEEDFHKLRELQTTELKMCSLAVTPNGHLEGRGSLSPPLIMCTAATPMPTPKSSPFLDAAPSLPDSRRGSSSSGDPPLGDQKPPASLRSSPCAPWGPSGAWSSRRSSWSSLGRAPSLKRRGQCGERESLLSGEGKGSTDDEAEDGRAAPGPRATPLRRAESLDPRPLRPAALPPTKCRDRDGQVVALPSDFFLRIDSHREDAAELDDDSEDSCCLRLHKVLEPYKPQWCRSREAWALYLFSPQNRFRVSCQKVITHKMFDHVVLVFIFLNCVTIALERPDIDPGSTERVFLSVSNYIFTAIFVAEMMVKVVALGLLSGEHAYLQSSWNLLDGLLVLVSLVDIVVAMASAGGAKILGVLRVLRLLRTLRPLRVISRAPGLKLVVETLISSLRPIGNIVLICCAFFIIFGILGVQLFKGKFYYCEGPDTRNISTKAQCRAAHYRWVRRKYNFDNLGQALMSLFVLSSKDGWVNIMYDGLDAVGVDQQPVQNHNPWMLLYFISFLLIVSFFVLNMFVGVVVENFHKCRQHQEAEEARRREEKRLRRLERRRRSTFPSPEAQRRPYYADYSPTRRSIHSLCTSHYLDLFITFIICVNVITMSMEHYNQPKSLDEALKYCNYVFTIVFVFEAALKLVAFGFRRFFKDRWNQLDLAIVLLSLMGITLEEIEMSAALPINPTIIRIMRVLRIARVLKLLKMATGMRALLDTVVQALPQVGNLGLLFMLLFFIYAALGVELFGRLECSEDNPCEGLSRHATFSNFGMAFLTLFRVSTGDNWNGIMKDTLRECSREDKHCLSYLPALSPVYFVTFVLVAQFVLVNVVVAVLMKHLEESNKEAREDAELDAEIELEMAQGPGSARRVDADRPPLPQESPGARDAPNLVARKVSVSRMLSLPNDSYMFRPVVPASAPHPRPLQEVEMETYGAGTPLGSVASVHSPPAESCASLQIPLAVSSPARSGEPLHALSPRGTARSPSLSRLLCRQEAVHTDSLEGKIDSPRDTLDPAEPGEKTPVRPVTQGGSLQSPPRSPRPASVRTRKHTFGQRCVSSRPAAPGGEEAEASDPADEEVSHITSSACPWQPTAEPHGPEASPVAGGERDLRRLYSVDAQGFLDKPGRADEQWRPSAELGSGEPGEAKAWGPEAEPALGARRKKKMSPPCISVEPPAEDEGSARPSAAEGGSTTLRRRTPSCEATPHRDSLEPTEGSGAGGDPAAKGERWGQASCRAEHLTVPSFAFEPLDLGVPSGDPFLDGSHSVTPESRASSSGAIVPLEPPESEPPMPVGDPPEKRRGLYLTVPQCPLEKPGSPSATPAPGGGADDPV

[13] = target: Paired box protein Pax-8 (Homo sapiens, UniProt Q06710); assay: inhibitors of PAX8-driven TPO luciferase reporter, dose response, RMG-I cells, cherry-pick (AID 687027); assay type: functional, cell-based;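 also: luciferase reporter driven by Pax8 target thyroperoxidase promoter measured by SteadyGlo luminescence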
Sequence of Paired box protein Pax-8 (Q06710 whole entry): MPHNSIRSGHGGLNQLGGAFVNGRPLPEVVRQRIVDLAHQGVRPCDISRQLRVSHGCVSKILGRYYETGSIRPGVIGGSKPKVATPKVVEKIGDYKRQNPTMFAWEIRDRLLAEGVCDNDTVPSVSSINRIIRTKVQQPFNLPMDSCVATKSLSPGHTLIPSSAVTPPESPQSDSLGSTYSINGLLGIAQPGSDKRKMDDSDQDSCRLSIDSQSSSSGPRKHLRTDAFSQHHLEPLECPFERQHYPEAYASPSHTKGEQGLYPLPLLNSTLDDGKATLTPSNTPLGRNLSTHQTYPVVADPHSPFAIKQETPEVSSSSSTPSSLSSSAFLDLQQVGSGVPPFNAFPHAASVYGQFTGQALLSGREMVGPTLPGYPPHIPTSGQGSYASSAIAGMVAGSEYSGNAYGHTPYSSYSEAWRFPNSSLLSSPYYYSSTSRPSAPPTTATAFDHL

[14] = target: Heat shock protein HSP 90-alpha (Homo sapiens, UniProt P07900); assay type: functional, organism-based
[15] = cells; assay type: functional, cell-based
[16] = tested on: BJ; assay: cytotoxicity toward BJ-TERT-LT-ST fibroblasts, dose response, cell-based, RAS-independent, luminescence (AID 1935); assay type: functional; settings: Homo sapiens;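 also: BJ fibroblasts immortalized with TERT plus LT and ST oncogenes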
[17] = cytotoxicity toward DRD oncogenic fibroblasts, dose response, cell-based, non-viral oncogenic, luminescence (AID 1934); assay type: functional; settings: Homo sapiens
[18] = target: T6, Polyadenylate-binding protein 1 (Homo sapiens, UniProt P11940); assay: PABP1 MLLE–PAM2 interaction inhibitors, dose response, miRNA deadenylation inhibitor project, biochemical, fluorescence polarization, Cy5-PAM2 peptide, secondary (AID 602260); assay type: functional; settings: read-out: IC50_Mean
T6 sequence (P11940 whole entry): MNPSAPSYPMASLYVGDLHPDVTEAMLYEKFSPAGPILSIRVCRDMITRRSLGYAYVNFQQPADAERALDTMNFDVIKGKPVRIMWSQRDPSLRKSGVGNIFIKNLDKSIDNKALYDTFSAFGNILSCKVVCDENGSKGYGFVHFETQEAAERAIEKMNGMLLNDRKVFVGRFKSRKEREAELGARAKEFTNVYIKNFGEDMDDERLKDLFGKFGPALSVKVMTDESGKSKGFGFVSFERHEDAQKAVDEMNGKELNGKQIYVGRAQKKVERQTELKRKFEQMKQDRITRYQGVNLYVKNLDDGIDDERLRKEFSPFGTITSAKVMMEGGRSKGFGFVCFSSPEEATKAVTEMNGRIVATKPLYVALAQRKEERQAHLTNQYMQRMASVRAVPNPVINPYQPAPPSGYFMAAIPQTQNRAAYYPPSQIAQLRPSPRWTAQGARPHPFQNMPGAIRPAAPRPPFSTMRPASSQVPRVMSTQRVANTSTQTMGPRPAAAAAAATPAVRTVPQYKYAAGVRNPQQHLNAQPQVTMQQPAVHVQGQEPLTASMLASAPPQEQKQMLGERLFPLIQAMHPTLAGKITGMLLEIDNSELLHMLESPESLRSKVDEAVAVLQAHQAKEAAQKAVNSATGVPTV

[19] = tested on: BJ; assay: cells; assay type: functional, cell-based; settings: Homo sapiens
[20] = tested on: INS1; assay: beta cell apoptosis inhibitors, cytokine rescue, dose response, luminescence, retest (AID 449756); assay type: functional, cell-based; settings: Rattus norvegicus;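 also: cell death triggered by IL-1 beta plus TNF-alpha plus IFN-gamma mixture; protective hits raise ATP signal compared with cytokine alone wells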
[21] = target: T6, Polyadenylate-binding protein 1; assay: PABP1 MLLE–PAM2 binding inhibitor potency, dose response, biochemical, fluorescence polarization, FITC-PAM2 peptide (AID 602259); assay type: functional; settings: read-out: IC50_Mean
[22] = tested on: BJ; assay: cytotoxicity toward BJ-TERT fibroblasts, dose response, cell-based, RAS-independent, luminescence (AID 1933); assay type: functional; settings: Homo sapiens
[23] = cells; assay type: functional, cell-based; remark: listed apart in the source

With `COC(=O)[C@@H]1C[C@]2(OC(=O)c3ccccc3)C=CC(=O)C[C@@H]2N1C(=O)OCc1ccccc1` the AC50 [1] was 6.36 µM (active), the EC50 [2] was 18.5 µM (active) and the EC50 [3] was 10.5 µM (active). For the same compound, the AC50 [4] was 14 µM (active) and the AC50 [5] was 8.72 µM (active).

With `CN(Cc1ccccc1)c1nc(N)nc(Cl)c1C=O` the IC50 [6] was 15.1 µM (active).

With `C/C(=N\NC1=NCCN1)c1ccccc1` the IC50 [6] was 12.9 µM (active).

In the case of `CCCCCOc1ccc(N2C(=O)C3C4C=CC(C3C2=O)N(C)C4=O)cc1` (centres undefined), the CC50 [7] is reported as > 40 µM (active).

In the case of `CO[C@@H]1CN(C)C(=O)c2cc(NC(=O)Nc3ccc(C(F)(F)F)cc3)ccc2OC[C@H](C)NC[C@@H]1C`, the AC50 [8] is reported as 5.85 µM (active).

In the case of `O=C(CCCc1ccccc1)Nc1cccc(C(=O)O)c1`, the AC50 [9] is reported as 1.91 µM (active), the AC50 [4] is reported as 4.42 µM (active) and the AC50 [10] is reported as 2.04 µM (active).

For `Cc1cc(OCc2cc(C(=O)N(C)CCc3cnn(C)c3)no2)cc(C)c1Cl`, the IC50 [11] was 29.6 µM (active) and the CC50 [7] was > 40 µM (active).

For `COc1ccc2c3c(n(C)c2c1)[C@H](CO)N(C(=O)Nc1ccc(F)cc1)CC31CCN(Cc2ccccn2)CC1`, the AC50 [8] was 3.43 µM (active).

For `CCc1ccccc1NC(=O)c1ccc(CN2CCC(Cc3ccccc3)CC2)cc1`, the IC50 [6] was 13.8 µM (active) and the EC50 [12] was 0.111 µM (active).

For `Cc1cc(C)cc(-n2c(C)c3c(C)nnc(C)c3c2C)c1`, the CC50 [7] was > 40 µM (active).

For `CC1CCN(S(=O)(=O)c2ccc3c(c2)N(CC(=O)NCCCN2C(C)CCCC2C)C(=O)CO3)CC1` (centres undefined), the IC50 [6] was 13.5 µM (active).

For `CCc1nnc(NS(=O)(=O)c2ccc(NC(=O)c3cccc(Br)c3)cc2)s1`, the IC50 [6] was 13.2 µM (active).

With `COc1ccc(-c2ccc3c(c2)[C@@H]2[C@@H](CCN2Cc2ccncc2)[C@@H](CO)N3)cc1` the AC50 [8] was 8.88 µM (active).

In the case of `N#C[C@@H]1[C@@H](c2ccccc2C2=CCCC2)[C@H](CO)N1C(=O)C1CC1`, the AC50 [8] is reported as > 36 µM (inactive).

For `Oc1ccc2ccccc2c1N=Nc1nccs1`, the AC50 [13] was 2.92 µM (active), the AC50 [14] was 0.932 µM (active) and the EC50 [15] was 40.5 µM (active). The EC50 [16] was 2.91 µM (active), the EC50 [17] was 10.3 µM (active) and the IC50 [18] was > 66 µM (inactive). The CC50 [7] was 17.8 µM (active), the EC50 [19] was 2.03 µM (active) and the AC50 [20] was 0.666 µM (active). For the same compound, the IC50 [21] was > 66 µM (inactive), the EC50 [22] was 1.32 µM (active) and the EC50 [23] was 40.4 µM (active).
